Data reported in patent US11274268B2, “Detergent compositions for removing heavy metals and formaldehyde” (FNG RESEARCH CO., LTD., priority 2017, dated 2022).

Tests used:
[1] = Formaldehyde removing ability test (GC); settings: 2.0% formaldehyde solution, 3 molar equivalents, room temperature
[2] = system: human skin; experiment: Skin irritation test of active ingredient (patch method, CTFA guidelines); type: in vivo; settings: for Test result (number of subject) (+) / Test result (number of subject) (−) / Test result (number of subject) (++) / Test result (number of subject) (±): 20 subjects, 24 hours patch; for Test result (number of subject) (+): apparent reddening; for Test result (number of subject) (−): no erythema or symptoms; for Test result (number of subject) (++): reddened and swollen; for Test result (number of subject) (±): slightly reddish; for Degree of irritation: Equation 1
Experimental: A total of 20 people (10 men and 10 women in their 20s and 30s) were tested for skin irritation using the patch method according to the guidelines of CTFA (The Cosmetic, Toiletry & Fragrance Association, Inc. Washington, D.C.).
A filter paper disk was placed in an 8 mm diameter, 10 panels of pin chamber.
After 24 hours, the pin chamber was removed, and skin conditions were visually observed. The degree and grade for skin irritation were calculated according to the following Equation 1, and the results are shown in Table 3 below.
[Criteria for Skin Irritation]
(−): No erythema or particularly no symptoms; (±): slightly reddish than the periphery; (+): Apparent reddening than periphery; (++): More reddened and swollen than periphery.
[Grade for Skin Irritation]
Degree of irritation 0-0.1: Grade I (unstimulated);
Degree of irritation 0.11-0.3: Grade II (weakly stimulated);
Degree of irritation 0.31-0.5: Grade III (moderately stimulated);
Degree of irritation 0.51 or more: Grade IV (strongly stimulated)

| SMILES | Area (formaldehyde, GC) ([1]; 30 min) [mAU * min] | Area (formaldehyde, GC) ([1]; 180 min) [mAU * min] | Area (formaldehyde, GC) ([1]; Initial) [mAU * min] | Grade ([2]; content 0.1%) | Test result (number of subject) (+) ([2]; content 0.1%) | Test result (number of subject) (−) ([2]; content 0.1%) | Test result (number of subject) (++) ([2]; content 0.1%) | Test result (number of subject) (±) ([2]; content 0.1%) | Degree of irritation ([2]; content 0.1%) | Grade ([2]; content 0.5%) | Test result (number of subject) (+) ([2]; content 0.5%) | Test result (number of subject) (−) ([2]; content 0.5%) | Test result (number of subject) (++) ([2]; content 0.5%) | Test result (number of subject) (±) ([2]; content 0.5%) | Degree of irritation ([2]; content 0.5%) | Grade ([2]; content 1.0%) | Test result (number of subject) (+) ([2]; content 1.0%) | Test result (number of subject) (−) ([2]; content 1.0%) | Test result (number of subject) (++) ([2]; content 1.0%) | Test result (number of subject) (±) ([2]; content 1.0%) | also measured |
| --- | --- | --- | --- | --- | --- | --- | --- | --- | --- | --- | --- | --- | --- | --- | --- | --- | --- | --- | --- | --- | --- |
| C1CNCCNCCNCCN1 [Cyclen, 1,4,7,10-tetraazacyclododecane] | 0.181 | 0 | 0.305 | I (Degree of irritation 0-0.1: Grade I (unstimulated)) | 0 | 20 | 0 | 0 | 0 | I (Degree of irritation 0-0.1: Grade I (unstimulated)) | 0 | 20 | 0 | 0 | 0 | II (Degree of irritation 0.11-0.3: Grade II (weakly stimulated)) | 1 | 18 | 0 | 1 | Degree of irritation ([2]; content 1.0%): 0.15 |
| O=C(O)CN(CCN(CCN(CC(=O)O)CC(=O)O)CC(=O)O)CCN(CC(=O)O)CC(=O)O [Embodiment 1, 3,6,9,12-tetrakis(carboxymethyl)-3,6,9,12-tetraazatetradecanedioic Acid] | 0.170 | 0 | 0.305 | I (Degree of irritation 0-0.1: Grade I (unstimulated)) | 0 | 20 | 0 | 0 | 0 | I (Degree of irritation 0-0.1: Grade I (unstimulated)) | 0 | 19 | 0 | 1 | 0.05 | II (Degree of irritation 0.11-0.3: Grade II (weakly stimulated)) | 0 | 16 | 0 | 4 | Degree of irritation ([2]; content 1.0%): 0.20 |
| O=C(O)c1ccc(N(CCN(CCN(c2ccc(C(=O)O)cc2)c2ccc(C(=O)O)cc2)c2ccc(C(=O)O)cc2)CCN(c2ccc(C(=O)O)cc2)c2ccc(C(=O)O)cc2)cc1 [Embodiment 2, 4,4′,4″,4′″-(((ethane-1,2-diylbis((4-carboxyphenyl)azanediyl))bis(ethane-2,1-diyl))bis(azanetriyl))tetrabenzoic Acid] | 0.168 | 0 | 0.305 | I (Degree of irritation 0-0.1: Grade I (unstimulated)) | 0 | 20 | 0 | 0 | 0 | I (Degree of irritation 0-0.1: Grade I (unstimulated)) | 0 | 20 | 0 | 0 | 0 | I (Degree of irritation 0-0.1: Grade I (unstimulated)) | 0 | 19 | 0 | 1 | Degree of irritation ([2]; content 1.0%): 0.05 |
| O=C(O)c1ccc(N(CCN(CCN(c2ccc(C(=O)O)o2)c2ccc(C(=O)O)o2)c2ccc(C(=O)O)o2)CCN(c2ccc(C(=O)O)o2)c2ccc(C(=O)O)o2)o1 [Embodiment 4, 5,5′,5″,5′″-(((ethane-1,2-diylbis((5-carboxyfuran-2-yl)azanediyl))bis(ethane-2,1-diyl))bis(azanetriyl))tetrakis(furan-2-carboxylic Acid)] | 0.173 | 0 | 0.305 | I (Degree of irritation 0-0.1: Grade I (unstimulated)) | 0 | 20 | 0 | 0 | 0 | I (Degree of irritation 0-0.1: Grade I (unstimulated)) | 0 | 20 | 0 | 0 | 0 | I (Degree of irritation 0-0.1: Grade I (unstimulated)) | 0 | 19 | 0 | 1 | Degree of irritation ([2]; content 1.0%): 0.05 |
| O=C(O)CN1CCN(CC(=O)O)CCN(CC(=O)O)CCN(CC(=O)O)CC1 [Embodiment 5, 2,2′,2″,2′″-(1,4,7,10-tetraazacyclododecane-1,4,7,10-tetrayl)tetraacetic Acid] | 0.179 | 0 | 0.305 | I (Degree of irritation 0-0.1: Grade I (unstimulated)) | 0 | 20 | 0 | 0 | 0 | I (Degree of irritation 0-0.1: Grade I (unstimulated)) | 0 | 20 | 0 | 0 | 0 | I (Degree of irritation 0-0.1: Grade I (unstimulated)) | 0 | 19 | 0 | 1 | Degree of irritation ([2]; content 1.0%): 0.05 |
| O=C(O)c1ccc(N2CCN(c3ccc(C(=O)O)cc3)CCN(c3ccc(C(=O)O)cc3)CCN(c3ccc(C(=O)O)cc3)CC2)cc1 [Embodiment 6, 4,4′,4″,4′″-(1,4,7,10-tetraazacyclododecane-1,4,7,10-tetrayl)tetrabenzoic Acid] | 0.183 | 0 | 0.305 | I (Degree of irritation 0-0.1: Grade I (unstimulated)) | 0 | 20 | 0 | 0 | 0 | I (Degree of irritation 0-0.1: Grade I (unstimulated)) | 0 | 20 | 0 | 0 | 0 | I (Degree of irritation 0-0.1: Grade I (unstimulated)) | 0 | 19 | 0 | 1 | Degree of irritation ([2]; content 1.0%): 0.05 |
